Data as given in ChEMBL document CHEMBL4043211, “Synthesis and anti-enterovirus activity of new analogues of MDL-860” (Bioorg Med Chem Lett, 2017).

Columns and labels:
[1] = Cytotoxicity against human Hep2 cells assessed as decrease in cell viability after 48 hrs by neutral red uptake assay; type: cell-based; details: HEp-2 cells
Coxsackievirus B3 = experiment: Antiviral activity against Coxsackievirus B3 Nancy infected in human Hep2 cells assessed as inhibition of virus-induced cytopathic effect after 48 hrs by neutral red uptake assay; type: functional, cell-based
Poliovirus 1 = experiment: Antiviral activity against Poliovirus 1 LSc-2ab infected in human Hep2 cells assessed as inhibition of virus-induced cytopathic effect after 48 hrs by neutral red uptake assay; type: functional, cell-based
Coxsackievirus B1 [2] = experiment: Antiviral activity against Coxsackievirus B1 Connecticut 5 infected in human Hep2 cells assessed as inhibition of virus-induced cytopathic effect after 48 hrs by neutral red uptake assay; type: functional, cell-based
[3] = Selectivity index, ratio of CC50 for human Hep2 cells to IC50 for Coxsackievirus B3 Nancy infected in human Hep2 cells; type: toxicity, cell-based; details: HEp-2 cells, read-out: Ratio CC50/IC50
Coxsackievirus B1 [4] = experiment: Antiviral activity against Coxsackievirus B1 infected in new born ICR mouse assessed as protection index at 25 mg/kg, sc administered for 12 days (reference value: 0%); type: functional
Coxsackievirus B1 [5] = experiment: Antiviral activity against Coxsackievirus B1 infected in new born ICR mouse assessed as mortality at 25 mg/kg, sc administered for 12 days (reference value: 100%); type: functional; details: Enterovirus B, 288 h
Coxsackievirus B1 [6] = experiment: Antiviral activity against Coxsackievirus B1 infected in new born ICR mouse assessed as increase in mean survival time at 25 mg/kg, sc administered for 12 days; type: functional
[7] = Selectivity index, ratio of CC50 for human Hep2 cells to IC50 for Poliovirus 1 infected in human Hep2 cells; type: toxicity, cell-based; details: HEp-2 cells, read-out: Ratio CC50/IC50
[8] = Selectivity index, ratio of CC50 for human Hep2 cells to IC50 for Coxsackievirus B1 Connecticut 5 infected in human Hep2 cells; type: toxicity, cell-based; details: HEp-2 cells, read-out: Ratio CC50/IC50
Coxsackievirus B1 [9] = experiment: Antiviral activity against Coxsackievirus B1 infected in new born ICR mouse assessed as increase in mean survival time at 50 mg/kg, sc administered for 12 days; type: functional
Coxsackievirus B1 [10] = experiment: Antiviral activity against Coxsackievirus B1 infected in new born ICR mouse assessed as protection index at 50 mg/kg, sc administered for 12 days (reference value: 0%); type: functional
Coxsackievirus B1 [11] = experiment: Antiviral activity against Coxsackievirus B1 infected in new born ICR mouse assessed as mortality at 50 mg/kg, sc administered for 12 days (reference value: 100%); type: functional; details: Enterovirus B, 288 h
Coxsackievirus B1 [12] = experiment: Antiviral activity against Coxsackievirus B1 infected in new born ICR mouse assessed as mortality at 75 mg/kg, sc administered for 12 days (reference value: 100%); type: functional; details: Enterovirus B, 288 h
Coxsackievirus B1 [13] = experiment: Antiviral activity against Coxsackievirus B1 infected in new born ICR mouse assessed as protection index at 75 mg/kg, sc administered for 12 days (reference value: 0%); type: functional
Coxsackievirus B1 [14] = experiment: Antiviral activity against Coxsackievirus B1 infected in new born ICR mouse assessed as increase in mean survival time at 75 mg/kg, sc administered for 12 days; type: functional
[15] = Enterovirus B, Nancy, HEp-2, 48 h, read-out: IC50
[16] = Enterovirus C, LSc-2ab, HEp-2, 48 h, read-out: IC50
[17] = Enterovirus B, Connecticut 5, HEp-2, 48 h, read-out: IC50

SMILES | CC50 at 48 h [1] | IC50 (Coxsackievirus B3) | IC50 (Poliovirus 1) | IC50 (Coxsackievirus B1 [2]) | IC50 (Coxsackievirus B3; [15]) | selectivity ratio [3] | IC50 (Poliovirus 1; [16]) | selectivity ratio [7] | selectivity ratio [8] | IC50 (Coxsackievirus B1 [2]; [17]) | further results
N#Cc1cc([N+](=O)[O-])ccc1Oc1ccccc1-c1cn2ccccc2n1 | 718 µM | Not Active | Not Active | Not Active | – | – | – | – | – | – | –
CC1(C)CC(Nc2ccc([N+](=O)[O-])cc2C#N)CC(C)(C)N1 | 675 µM | – | Not Active | Not Active | 426 µM | 1.5 | – | – | – | – | –
N#Cc1cc([N+](=O)[O-])ccc1Oc1c(F)cc(F)cc1F | 518 µM | Not Active | – | – | – | – | 2.7 µM | 192 | 690 | 0.75 µM | PI (Coxsackievirus B1 [4]): 11.6%; mortality at 25 mg/kg (Coxsackievirus B1 [5]): 88.4%; MST (Coxsackievirus B1 [6]): 2.6 days
N#Cc1cc([N+](=O)[O-])ccc1Oc1ncn(-c2ccccc2)n1 | 571 µM | Not Active | Not Active | – | – | – | – | – | 3 | 190 µM | –
Cc1ccc(C(C)C)c(Oc2ccc([N+](=O)[O-])cc2C#N)c1 | 94.3 µM | Not Active | Not Active | – | – | – | – | – | 5.8 | 16.2 µM | –
N#Cc1cc([N+](=O)[O-])ccc1N1C[C@@H]2C[C@H](C1)c1cccc(=O)n1C2 | 492 µM | Not Active | – | – | – | – | 234 µM | 2.1 | 3.2 | 152 µM | –
N#Cc1cc([N+](=O)[O-])ccc1Oc1c(Cl)c(Cl)c(Cl)c(Cl)c1Cl | 119 µM | – | Not Active | – | 5.8 µM | 20.5 | – | – | 10.9 | 10.9 µM | –
N#Cc1cc([N+](=O)[O-])ccc1Oc1c(F)cccc1F | 355 µM | Not Active | – | – | – | – | 6.8 µM | 52.2 | 507 | 0.7 µM | MST (Coxsackievirus B1 [9]): 5.4 days; PI (Coxsackievirus B1 [10]): 33.3%; mortality at 50 mg/kg (Coxsackievirus B1 [11]): 66.7%
N#Cc1cc([N+](=O)[O-])ccc1Oc1ccc(F)c(F)c1 | 320 µM | Not Active | – | – | – | – | 2.7 µM | 118 | 405 | 0.8 µM | MST (Coxsackievirus B1 [9]): 5 days; PI (Coxsackievirus B1 [10]): 50%; mortality at 50 mg/kg (Coxsackievirus B1 [11]): 50%
COc1ccc(Oc2ccc([N+](=O)[O-])cc2C#N)c(C(C)(C)C)c1 | 22 µM | Not Active | Not Active | Not Active | – | – | – | – | – | – | –
N#Cc1cc([N+](=O)[O-])ccc1Oc1ccc(Cl)c(Cl)c1 | 493 µM | – | – | – | 2.7 µM | 182 | 6.8 µM | 72.5 | 587 | 0.8 µM | mortality at 75 mg/kg (Coxsackievirus B1 [12]): 100%; PI (Coxsackievirus B1 [13]): 0%; MST (Coxsackievirus B1 [14]): 3 days
Cc1c(Br)cc(Br)c(Oc2ccc([N+](=O)[O-])cc2C#N)c1Br | 570 µM | – | Not Active | – | 29.6 µM | 19.6 | – | – | 2.2 | 256 µM | –
N#Cc1cc([N+](=O)[O-])ccc1Sc1ccccc1Cl | 53.8 µM | – | Not Active | Not Active | 9.9 µM | 5.4 | – | – | – | – | –
